According to ChEMBL document CHEMBL4610100, “Jatrophane Diterpenoids from Euphorbia esula as Inhibitors of RANKL-Induced Osteoclastogenesis” (J Nat Prod, 2020):

Tested on: BMDM
Assay: Anti-osteoporosis activity in C57BL/6 mouse bone marrow macrophages assessed as inhibition of M-CSF/GST-tagged recombinant RANKL-induced osteoclast differentiation measured after 5 days by TRAP staining based assay
Type: functional, cell-based
Conditions: C57BL/6, BMDM, 120 h

IC50 [µM] | Compound
10 | C=C1[C@H](OC(=O)c2ccccc2)[C@@H](O)[C@@H](OC(=O)c2cccnc2)C(C)(C)/C=C/[C@@H](C)C(=O)[C@@]2(O)C[C@H](C)[C@H](OC(C)=O)[C@@H]2[C@H]1OC(C)=O
> 10 | C=C1[C@H](OC(=O)c2ccccc2)[C@@H](OC(C)=O)[C@@H](OC(=O)c2cccnc2)C(C)(C)/C=C/[C@@H](C)C(=O)[C@@]2(O)C[C@H](C)[C@H](OC(C)=O)[C@@H]2[C@H]1OC(C)=O
